Consider 2 molecules from article PMC10818312, “Ocular and Plasma Pharmacokinetics of Enavogliflozin Ophthalmic Solution in Preclinical Species” (Pharmaceuticals, 2024).

Series [1] in a line: Plasma PK after single ocular administration in rats. In kind it is in vivo. To be noted: male, Brown Norway, topical or ocular, 25 ug, rat plasma, single ocular 25 μg. As to the method: (§1) We used 7-week-old male Brown Norway rats (Central Lab. Animal Inc., Seoul, Republic of Korea) weighing 140–180 g. The rats were acclimated for a minimum of 7 days. For the evaluation of plasma PKs after ocular administration, a single dose of 5 μL of DWRX2008 0.5% (25 μg of enavogliflozin) was topically applied on the left eye. One-year-old male Ridglan beagle dogs (JOHN Bio Co., Nantong, China) weightng 8–10 kg were chosen. The beagle dogs experienced a withdrawal period of over one month. For the evaluation of plasma PKs after ocular administration, a single dose of 20 μL of DWRX2008 0.5% (100 μg of enavogliflozin) was ocularly administered on the left eyes. In rats and beagle dogs, DWRX2008 was administered to the left eye for evaluation of safety and systemic absorption. Male New Zealand White rabbits (Samtako Biokorea, Osan, Republic of Korea) weighing 2.0–2.5 kg were used in PK studies after eye drop instillations. The rabbits were acclimated for 7 days. […]
(§2) A total of three rats were sampled 10 times at 0 (pre-dose), 0.08, 0.25, 0.5, 1, 2, 4, 8, 12 and 24 h post-dose. […] After centrifugation at 14,000 rpm for 5 min, 3 μL of sample was analyzed by LC-MS [24]. […] Finally, 3 μL of sample was analyzed by LC-MS [24]. […] Finally, 3 μL of sample was analyzed by LC-MS [24]. […]

Series [2] in a line: Plasma and retinal concentration after single oral administration in rabbits. In kind it is in vivo, male New Zealand White rabbits.
A short description of series [3]: Plasma PK after single ocular administration in beagle dogs. To be noted: male, Ridglan beagle, topical or ocular, 100 ug, beagle dog plasma, single ocular 100 μg. In kind it is in vivo. As to the method: as §1, §2
The subject of another series is hERG. On the set-up: method as in earlier work. The note with it: ref Daewoong Therapeutics, DWRX2008-IB-01 Investigator’s brochure, data on file; cited from earlier work.
The next series concerns hSGLT2. To be noted: no reference given; read-out: IC50 against hSGLT2; cited from earlier work.
The conditions of series [4]: male, New Zealand White, rabbit, in vivo.
Protocol: (§3) We used 9-month-old male rabbits (Envigo, Denver, PA, USA) weighing 3.1–3.7 kg in the PK studies involving a single topical ocular administration of [^14C] enavogliflozin.
(§4) The appropriate quantity of radiolabeled and non-radiolabeled test formulation (if required) was combined with the vehicle to meet the dose level (~77 μCi/eye). […] A single volumetric dose of 30 μL was administered to each eye (600 μg/eye, 1200 μg/head).
(§5) Two animals were euthanized by Euthasol® administration into the marginal ear vein at each predetermined time point (0.5, 1, 2, 4, 8, 24, and 48 h) post-instillation. Subsequently, their heads were frozen in a hexane/dry-ice bath and embedded in a 5% carboxymethylcellulose matrix. The embedded heads were sectioned at 30 μm thickness with less than 20% variation.
(§6) The primary PK parameters for concentrations of enavogliflozin were explored using a noncompartmental method of Phoenix WinNonlin 8.3 (Certara, L.P., Princeton, NJ, USA). The Cmax and Tmax were directly accepted from observed data. The AUC0–t was calculated using the linear trapezoidal method based on the mean radioactivity concentration of both eyes for ocular PKs in rabbits and the linear-up/log-down trapezoidal method for plasma PKs in rats, beagle dogs, and rabbits.
Series [5] can be described thus: Retina/plasma drug concentration ratio in rats. Format: in vivo. To be noted: mean (range).
The nature of series [6]: Melanin binding capability. In kind it is in vitro ADME.
The conditions of series [7]: no reference given; cited from earlier work.
A short description of series [8]: Plasma PK after single ocular administration in rabbits. The note with it: male, New Zealand White, topical or ocular, 400 ug, rabbit plasma, single ocular 400 μg (both eye). In kind it is in vivo. The method, then: as §1, §2
Series [9] is described as follows: Ocular distribution and blood exposure of radioactivity by autoradiography after single ocular [14C] enavogliflozin (terminal sampling). To be noted: single ocular 600 μg/eye, rabbits.
Protocol: as §3, §4, §5, §6
Where [10] appears, read: left eye, median [min, max], n = 3.

By Tmax is commonly meant the time at which the peak concentration occurs. For orientation: half-life means how long it takes for the measured level to halve. Low readings indicate fast loss, high ones slow loss. For orientation: IC50 means the midpoint of a concentration-inhibition curve.

Take `OC[C@H]1O[C@@H](c2cc(Cc3ccc(C4CC4)cc3)c(Cl)c3c2CCO3)[C@H](O)[C@@H](O)[C@@H]1O` [enavogliflozin]: the time of peak concentration (Tmax) in [1] (setting [10]) turned out to be 4 h; in series [2] (male, New Zealand White, 400 ug, rabbit plasma, single oral 400 μg, median [min, max], n = 6), 0.8 h; in [3] (setting [10]) it was 1 h; in series [8] (median [min, max], n = 6), 0.5 h. In addition, the half-life in series [1] (mean ± SD (% CV)) is 5.4 h; in series [3] (mean ± SD (% CV)), 10.6 h; in [8] (mean ± SD (% CV)) it was 3.6 h. Further, the retinal enavogliflozin concentration result in [2] (rabbits, oral administration, same dose (400 μg)) is “below the lower limit of quantification”. Moreover, the values for the concentration for half-maximal inhibition (IC50) with hERG and in the series with hSGLT2 were 44.9 µM and 0.00043 µM, respectively. The “time until which retinal concentration remained above the IC50 of SGLT2” value in [4] is recorded as 24 h. Further, the “mean retina/plasma (R/P) drug concentration ratio” value in series [5] (1 h after administration) was 3.3 (range: 0.6–6.6); in series [5] (3 h after administration) it was 1.3 (range: 0.2–2.2); in series [5] (6 h after administration), 2.6 (range: 1.4–3.3). The melanin binding capability entry in [6] is on record as “approximately 33%”. For the same molecule, the “partition coefficient [Log P]” value in [7] was 2.13.
Regarding [^14C] enavogliflozin, in [9] (radioactivity), the “AUC0–t in whole blood as % of corresponding value in the plasma” value is recorded as 64.0% and the “Cmax in whole blood as % of corresponding value in the plasma” value was 73.4%. Moreover, in series [9], the “Radioactivity in the optic nerve” value is on record as “barely detectable”.
